What was measured:
[1] = tested on: Duck hepatitis B virus; experiment: Antiviral activity against Duck hepatitis B virus infected ip dosed ducklings assessed as log reduction of serum viral DNA copies per ml of serum after 10 days
[2] = tested on: Duck hepatitis B virus; experiment: Antiviral activity against Duck hepatitis B virus chronically infected ducklings assessed as log reduction of serum viral DNA copies per ml of serum at 20 mg/kg, ip after 10 days; details: route intraperitoneal
[3] = tested on: Duck hepatitis B virus; experiment: Antiviral activity against Duck hepatitis B virus experimentally infected ducklings assessed as log reduction of serum viral DNA copies per ml of serum at 40 mg/kg, ip after 10 days; details: route intraperitoneal
[4] = tested on: Woodchuck hepatitis virus; experiment: Antiviral activity against woodchuck hepatitis virus infected woodchucks assessed as log reduction of serum viral DNA per ml of serum after 4 weeks; format: functional

Structure (SMILES)	Activity [4]	other results
Nc1nc(N)c2ncn([C@H]3CO[C@@H](CO)O3)c2n1 [AMDOXOVIR]		Activity [1]: Dose-dependent effect; Activity [2]: 0.3; Activity [3]: 0.9
Cc1cn([C@H]2O[C@@H](CO)[C@H](O)[C@H]2F)c(=O)[nH]c1=O [CLEVUDINE]	8.2	
CC(C)OC(=O)OCOP(=O)(CO[C@H](C)Cn1cnc2c(N)ncnc21)OCOC(=O)OC(C)C.O=C(O)/C=C/C(=O)O [TENOFOVIR DISOPROXIL FUMARATE]	1.5	
Nc1ccn([C@@H]2CS[C@H](CO)O2)c(=O)n1 [LAMIVUDINE]	2.5	
C=C1[C@H](CO)[C@@H](O)C[C@@H]1n1cnc2c(=O)[nH]c(N)nc21.O [ENTECAVIR]	7	
CCCCCCCCCCCCCCCCOCCCOP(=O)(O)OCCOCn1cnc2c(=O)[nH]c(N)nc21	1.4	
Nc1ncnc2c1ncn2[C@H]1C[C@H](O)[C@@H](CO)O1 [DEOXYADENOSINE]	1.5	

— ChEMBL document CHEMBL1154402, “Antiviral effect of orally administered (-)-beta-D-2-aminopurine dioxolane in woodchucks with chronic woodchuck hepatitis virus infection” (Antimicrob Agents Chemother, 2007)
